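Exposure lasted 48 hours, with cells grown in 96-well plates and compounds tested at five concentrations. At the GI50, growth is halved.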 Active and inactive are the calls of the source. Cut-off read from the data, not from the text of the source: active = GI50 up to about 1.1 µM and inactive = higher.

Among the test systems are CCRF-CEM; DU-145; HCC 2998; HCT-116; HCT-15; HOP-62; HOP-92; IGROV-1; K562; KM12; NCI-H522; OVCAR-3; RPMI-8226; RXF 393; SK-MEL-5; SW-620; TK-10; UACC-257; EKVX; UO-31.
What all share (experiment): NCI-60 cell line screen, 48 h

`CCNC1=C(NC(=O)c2ccccc2)C(=O)c2ccccc2C1=O`: the GI50 with CCRF-CEM is 70.1 µM (inactive); in the experiment with DU-145 it was 57 µM (inactive); in the experiment with HCC 2998, 33 µM (inactive); in the experiment on HCT-116 it was 25.8 µM (inactive); in the experiment on HCT-15, 18.5 µM; in the experiment with HOP-62 it was 66.2 µM (inactive). In addition, the GI50 is 55.6 µM (inactive) with HOP-92; 46.9 µM (inactive) in the experiment with IGROV-1; 45.4 µM (inactive) in the experiment on K562; 30.4 µM (inactive) with KM12; 11.2 µM (inactive) with NCI-H522; 25.1 µM (inactive) in the experiment with OVCAR-3. The GI50 was > 100 µM (inactive) with RPMI-8226; 24.2 µM (inactive) with RXF 393; > 10 µM (inactive) in the experiment with SK-MEL-5; 23.4 µM (inactive) in the experiment on SW-620; 98.4 µM (inactive) in the experiment on TK-10; 23.4 µM (inactive) in the experiment with UACC-257.

As for `O=C1c2ccccc2C(=O)N1c1nc(-c2ccc(Cl)cc2)cc(N2N=C(c3ccc(Br)cc3)CC2c2ccccc2)n1` (centres undefined), the GI50 in the experiment on CCRF-CEM was 4.13 µM (inactive); with DU-145, 3.45 µM (inactive); in the experiment with EKVX, 0.792 µM (active); with HCC 2998, 0.301 µM (active); in the experiment with HCT-116 it was 2.01 µM (inactive); with HCT-15, 1.99 µM. In addition, the GI50 with HOP-62 was 2.92 µM (inactive); with HOP-92, 11.4 µM (inactive); in the experiment on IGROV-1, 2.84 µM (inactive); in the experiment with K562 it was 3.08 µM (inactive); in the experiment on KM12 it was 9.4 µM (inactive); in the experiment with NCI-H522, 2.09 µM (inactive). The GI50 with OVCAR-3 is 0.863 µM (active); in the experiment on RPMI-8226 it was 2.7 µM (inactive); in the experiment on RXF 393, 9.16 µM (inactive); in the experiment with SK-MEL-5, 1.96 µM (inactive); in the experiment with SW-620, 2.53 µM (inactive); in the experiment with TK-10, 7.98 µM (inactive). Further, the GI50 in the experiment on UACC-257 was 6.7 µM (inactive); in the experiment with UO-31, 4.81 µM (inactive).

For the compound `CC(C)(C)OC(=O)NC(Cc1ccc(OCc2ccccc2)cn1)C(=O)N1CCCCC1` (centres undefined), the GI50 in the experiment with CCRF-CEM is 31.8 µM (inactive); with DU-145, 33 µM (inactive); with EKVX, 37.1 µM (inactive); in the experiment with HCC 2998, 19.9 µM (inactive); with HCT-116, 40.8 µM (inactive); in the experiment on HCT-15 it was 37.6 µM. The GI50 was 49.9 µM (inactive) in the experiment with HOP-62; 39.9 µM (inactive) in the experiment with HOP-92; 53.7 µM (inactive) in the experiment with IGROV-1; 31.7 µM (inactive) in the experiment with K562; 30.9 µM (inactive) in the experiment with KM12; 32.1 µM (inactive) in the experiment with NCI-H522. Also, the GI50 was 35.6 µM (inactive) with OVCAR-3; 20.7 µM (inactive) in the experiment with RPMI-8226; 19.5 µM (inactive) with RXF 393; 16.4 µM (inactive) in the experiment with SK-MEL-5; 89.3 µM (inactive) in the experiment with SW-620; 37.1 µM (inactive) in the experiment with TK-10. Moreover, the GI50 in the experiment with UACC-257 is 19.6 µM (inactive); in the experiment with UO-31, 27.9 µM (inactive).

With `COC(=O)c1ccccc1C1CN=NC12Cc1ccc3ccccc3c1C2=O` (centres undefined), the GI50 with CCRF-CEM is 70.5 µM (inactive); in the experiment with DU-145, > 100 µM (inactive); in the experiment with EKVX, > 100 µM (inactive); with HCC 2998 it was > 100 µM (inactive); in the experiment with HCT-15 it was above 100 µM; in the experiment on HOP-92 it was 97.9 µM (inactive). Further, the GI50 was > 100 µM (inactive) with IGROV-1; > 100 µM (inactive) in the experiment on K562; 52.5 µM (inactive) in the experiment with KM12; 80.4 µM (inactive) in the experiment on NCI-H522; 17.7 µM (inactive) in the experiment on OVCAR-3; 13.4 µM (inactive) in the experiment on RPMI-8226. Further, the GI50 with RXF 393 was 78.3 µM (inactive); with SK-MEL-5, 6.08 µM (inactive); in the experiment with SW-620 it was > 100 µM (inactive); with TK-10, > 100 µM (inactive); in the experiment on UACC-257, > 100 µM (inactive); in the experiment with UO-31 it was > 100 µM (inactive).

As for `O=C(NCCCCNCCCNC(=O)c1cc(-c2ccccc2)nc2ccccc12)c1cc(-c2ccccc2)nc2ccccc12`, the GI50 with CCRF-CEM was 1.62 µM (inactive); with DU-145, 1.78 µM (inactive); with EKVX, 1.99 µM (inactive); in the experiment with HCC 2998 it was 1.64 µM (inactive); in the experiment with HCT-116, 1.8 µM (inactive); in the experiment with HCT-15, 1.82 µM. The GI50 is 1.63 µM (inactive) in the experiment on HOP-62; 1.37 µM (inactive) with HOP-92; 1.55 µM (inactive) in the experiment with IGROV-1; 1.81 µM (inactive) in the experiment with K562; 1.7 µM (inactive) in the experiment with KM12; 1.7 µM (inactive) in the experiment on NCI-H522. Moreover, the GI50 was 1.55 µM (inactive) with OVCAR-3; 2.5 µM (inactive) in the experiment with RPMI-8226; 2.19 µM (inactive) with RXF 393; 1.44 µM (inactive) in the experiment with SK-MEL-5; 1.71 µM (inactive) with SW-620; 1.59 µM (inactive) in the experiment with TK-10. In addition, the values for the GI50 in the experiment with UACC-257 and in the experiment on UO-31 were 1.73 µM (inactive) and 1.7 µM (inactive), respectively.

On to `COC(=O)C(Cc1ccccc1I)C1=CCC2(CC1)OCCO2` (centres undefined), for which the GI50 with CCRF-CEM was 41.7 µM (inactive); in the experiment on DU-145 it was 25 µM (inactive); in the experiment with EKVX, 47.6 µM (inactive); in the experiment with HCC 2998, 31.6 µM (inactive); in the experiment with HCT-15 it was 26.1 µM; in the experiment on HOP-62, 28.9 µM (inactive). Besides, the GI50 is 28.2 µM (inactive) in the experiment with HOP-92; 41 µM (inactive) with IGROV-1; 27.3 µM (inactive) in the experiment with K562; 22.9 µM (inactive) in the experiment on KM12; 21.4 µM (inactive) in the experiment on NCI-H522; 20.8 µM (inactive) in the experiment with OVCAR-3. Further, the GI50 was 30 µM (inactive) with RPMI-8226; 14.2 µM (inactive) in the experiment with RXF 393; 16.8 µM (inactive) in the experiment on SK-MEL-5; 44.4 µM (inactive) in the experiment on SW-620; 31.6 µM (inactive) in the experiment on TK-10; 27.1 µM (inactive) with UACC-257. For the same compound, the GI50 with UO-31 was 23.3 µM (inactive).

With `FC(F)(F)C1(c2ccccc2)SCc2nc3ccccc3n21` (centres undefined), the GI50 with CCRF-CEM was 88.1 µM (inactive); in the experiment on DU-145, > 100 µM (inactive); in the experiment on EKVX, > 100 µM (inactive); with HCC 2998, > 100 µM (inactive); with HCT-116 it was 65.5 µM (inactive); in the experiment with HCT-15, 78.7 µM. Besides, the GI50 with HOP-62 was > 100 µM (inactive); with HOP-92, 47.2 µM (inactive); in the experiment with IGROV-1, > 100 µM (inactive); with K562, 43.7 µM (inactive); in the experiment with KM12 it was > 100 µM (inactive); with NCI-H522, 55.6 µM (inactive). In addition, the GI50 is > 100 µM (inactive) in the experiment on OVCAR-3; 70.5 µM (inactive) in the experiment on RPMI-8226; > 100 µM (inactive) in the experiment with RXF 393; 66.1 µM (inactive) in the experiment on SK-MEL-5; > 100 µM (inactive) in the experiment on SW-620; > 100 µM (inactive) in the experiment with TK-10. The results for the GI50 in the experiment with UACC-257 and in the experiment with UO-31 were > 100 µM (inactive) and 55.5 µM (inactive), respectively.

Consider `Cc1ccc(/C=C2\CN(C)CC3C(c4ccc(C)cc4)=C(C#N)C(=O)NC23)cc1` (centres undefined), for which the GI50 with CCRF-CEM is > 50 µM (inactive); in the experiment on DU-145 it was > 50 µM (inactive); in the experiment with EKVX it was > 50 µM (inactive); in the experiment on HCC 2998, > 50 µM (inactive); in the experiment on HCT-116 it was > 50 µM (inactive); in the experiment with HCT-15, above 50 µM. In addition, the GI50 in the experiment with HOP-62 was > 50 µM (inactive); with HOP-92, 29.3 µM (inactive); with IGROV-1, > 50 µM (inactive); in the experiment on K562, > 50 µM (inactive); with KM12 it was > 50 µM (inactive); in the experiment with NCI-H522, > 50 µM (inactive). Besides, the GI50 with OVCAR-3, in the experiment on RPMI-8226, in the experiment on RXF 393, in the experiment with SK-MEL-5, with SW-620 and with TK-10 was > 50 µM (inactive) each time. For the same compound, the GI50 in the experiment on UACC-257 is > 50 µM (inactive).

Source of the values: ChEMBL document CHEMBL1201862, “PubChem BioAssay data set” (2004).
